Test systems include DLD-1 colon; M19-MEL melanoma; SNB-78 CNS; DMS 114 small cell lung; LXFL 529 NSCLC; HOP-18 NSCLC; P388/ADR leukemia; SN12K1 renal; P388 leukemia; XF 498 CNS; RXF-631 renal.
Common to all, as to test: NCI tumour cell line growth inhibition, 48 h

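Compound exposure: 48 hours, 5 concentrations, 96-well plates. TGI: total growth inhibition.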

Take `O=C1c2ccccc2C(=O)c2c1ccc1c2N=C(c2ccc(F)cc2)CC(c2ccc(Cl)c(Cl)c2)N1` (centres undefined): the TGI in the experiment with DLD-1 colon amounted to 31.8 µM; with M19-MEL melanoma, 40.4 µM; with SNB-78 CNS, 41.5 µM; with DMS 114 small cell lung, 21.7 µM; in the experiment on LXFL 529 NSCLC, 30 µM.

Consider `CSc1nc(NC2OCC(O)C(O)C2O)c(N)c(=O)n1C` (centres undefined), for which the TGI with HOP-18 NSCLC, in the experiment on P388/ADR leukemia, in the experiment with SN12K1 renal, with DLD-1 colon, in the experiment with SNB-78 CNS and with P388 leukemia was over 100 µM in each case. Further, in the experiment on XF 498 CNS, the TGI was over 100 µM.

As to `COc1ccc(C[C@H](N)C(=O)N2C[C@H](CO)C[C@H](n3ccc(=O)[nH]c3=O)C2)cc1`, the TGI in the experiment with HOP-18 NSCLC, in the experiment on DLD-1 colon, in the experiment on M19-MEL melanoma, in the experiment on DMS 114 small cell lung and in the experiment on LXFL 529 NSCLC was over 100 µM each time.

Turning to `[N-]=[N+]=NC1CC(n2cc(COCC(F)(F)F)c(=O)[nH]c2=O)OC1CO` (centres undefined), the TGI in the experiment with DLD-1 colon, in the experiment with M19-MEL melanoma, with SNB-78 CNS, in the experiment on DMS 114 small cell lung, in the experiment with LXFL 529 NSCLC and with XF 498 CNS was over 100 µM each time.

Turning to `Oc1ccc2c(c1)CC[N+]1=C2CCC2CCCC21` (centres undefined), the TGI with DLD-1 colon, in the experiment with M19-MEL melanoma, in the experiment on DMS 114 small cell lung and in the experiment with LXFL 529 NSCLC was over 100 µM each time.

In the case of `CC(=O)OCc1cc(=O)n(C)c2c3c4c(cc12)c(C)cc(=O)n4CO3`, the TGI with HOP-18 NSCLC amounted to 51.5 µM; in the experiment with P388/ADR leukemia, 3.34 µM; in the experiment with SN12K1 renal, 5.57 µM; in the experiment on DLD-1 colon it was 26.3 µM; in the experiment with M19-MEL melanoma, 4.21 µM; with SNB-78 CNS, 14.2 µM. Besides, the TGI in the experiment on DMS 114 small cell lung was determined as 6.11 µM; in the experiment on P388 leukemia, 4.99 µM; with XF 498 CNS, 3.82 µM.

For the compound `COc1cccc2c1C1(O)C2CCCC12OCCCO2` (centres undefined), the TGI in the experiment on HOP-18 NSCLC, with DLD-1 colon, with M19-MEL melanoma, in the experiment on SNB-78 CNS, in the experiment on DMS 114 small cell lung and in the experiment with LXFL 529 NSCLC was over 100 µM in each case.

Regarding `COC(=O)c1nc(-c2ccc3c(n2)C(=O)C(N)=C(OC)C3=O)c(N)c(-c2ccc(OC)c(OC)c2O)c1C`, the TGI with HOP-18 NSCLC was determined as 17.8 µM; in the experiment with P388/ADR leukemia, 3.17 µM; with SN12K1 renal it was 3.38 µM; in the experiment with DLD-1 colon, 3.42 µM; in the experiment with M19-MEL melanoma, 1.26 µM; with SNB-78 CNS, 8.38 µM. Further, the TGI with DMS 114 small cell lung was 2.31 µM; with P388 leukemia it was 3.74 µM; with XF 498 CNS it was 2.85 µM.

For `CC1CCc2c(sc3ncnc(N/N=C/c4ccc(Cl)c(Cl)c4)c23)C1` (centres undefined), the TGI in the experiment with DLD-1 colon was over 100 µM; with M19-MEL melanoma, 96.2 µM; with DMS 114 small cell lung, 13.3 µM.

Take `CN(C)CCCNc1c2ccccc2nc2cccc([N+](=O)[O-])c12`: the TGI in the experiment with M19-MEL melanoma worked out at 0.0787 µM; in the experiment on SNB-78 CNS, 0.0601 µM; in the experiment with DMS 114 small cell lung, 0.0385 µM; in the experiment on XF 498 CNS, 0.0147 µM.

With `CC(=O)NC1=C(C)C(=O)c2c(nc3n2CCC3O)C1=O` (centres undefined), the TGI is over 100 µM in the experiment with HOP-18 NSCLC; over 100 µM in the experiment with DLD-1 colon; over 57.1 µM in the experiment with M19-MEL melanoma; 64.4 µM with SNB-78 CNS; 21 µM in the experiment with DMS 114 small cell lung; 41.8 µM in the experiment on LXFL 529 NSCLC. In the experiment with XF 498 CNS, this compound registered a TGI of 38.1 µM.

As for `N=S(=O)(c1ccccc1)c1ccccc1[N+](=O)[O-]` (centres undefined), the TGI in the experiment with HOP-18 NSCLC, in the experiment with DLD-1 colon, in the experiment with M19-MEL melanoma, with SNB-78 CNS, with LXFL 529 NSCLC and in the experiment on RXF-631 renal was over 100 µM each time. For the same compound, the TGI with XF 498 CNS is over 100 µM.

In the case of `CCNC(=O)/C=C/CCC#Cc1ccc(-c2ccc(-c3cccs3)s2)s1`, the TGI in the experiment with HOP-18 NSCLC, with DLD-1 colon, in the experiment on M19-MEL melanoma, in the experiment with SNB-78 CNS, with DMS 114 small cell lung and in the experiment on LXFL 529 NSCLC was over 100 µM each time. Also, the TGI in the experiment with XF 498 CNS is 7.19 µM.
